The source of these data is ChEMBL document CHEMBL2062393, “Drugs for stroke: action of nitrone (Z)-N-(2-bromo-5-hydroxy-4-methoxybenzylidene)-2-methylpropan-2-amine oxide on rat cortical neurons in culture subjected to oxygen-glucose-deprivation” (Eur J Med Chem, 2012).

Activity calls are given as the source filed them. The calls are words filed in the database; no cut-off is given here.

Type in all cases: functional
For test [1], the system named is Cortical neurone. The test is described as follows: Neuroprotective activity against Wistar rat Cortical neurons assessed as reduction of oxygen-glucose-deprivation-induced mitochondrial membrane potential at 1 to 100 uM treated during reperfusion measured after 24 hrs by spectrofluorometer analysis.
Test [2] relates to Cortical neurone. The test is described as follows: Neuroprotective activity against Wistar rat Cortical neurons assessed as reduction of oxygen-glucose-deprivation-induced ROS production at 1 uM treated during reperfusion measured after 24 hrs by H2DCF-DA assay.
Test [3] has as its system Cortical neurone. The test is described as follows: Neuroprotective activity against Wistar rat Cortical neurons assessed as reduction of oxygen-glucose-deprivation-induced LDH release at 1 to 100 uM treated during reperfusion measured after 24 hrs. Background: LDH leaks from cells whose membrane has failed.
Test [4] has as its system Cortical neurone. The test is described as follows: Neuroprotective activity against Wistar rat Cortical neurons assessed as reduction of oxygen-glucose-deprivation-induced cell death at 100 uM treated during reperfusion measured after 24 hrs by XTT assay. A general note: Tetrazolium assays rely on reduction of a dye to a coloured formazan, in cell work by metabolically active cells.

For test [5], the system named is Cortical neurone. The test is described as follows: Neuroprotective activity against Wistar rat Cortical neurons assessed as reduction of oxygen-glucose-deprivation-induced lipid peroxidation at 1 uM treated during reperfusion measured after 24 hrs by TBARS method.
The subject of test [6] is Cortical neurone. The test is described as follows: Neuroprotective activity against Wistar rat Cortical neurons assessed as reduction of oxygen-glucose-deprivation-induced lipid peroxidation at 100 uM treated during reperfusion measured after 24 hrs by TBARS method.
For test [7], the system named is Cortical neurone. The test is described as follows: Neuroprotective activity against Wistar rat Cortical neurons assessed as reduction of oxygen-glucose-deprivation-induced caspase-3 activity at 1 to 100 uM treated during reperfusion measured after 24 hrs by spectrofluorometer analysis.
Test [8] deals with Cortical neurone. Description: Neuroprotective activity against Wistar rat Cortical neurons assessed as reduction of oxygen-glucose-deprivation-induced cell death at 1 to 10 uM treated during reperfusion measured after 24 hrs by XTT assay.

Turning to `COc1cc(Br)c(/C=[N+](\[O-])C(C)(C)C)cc1O`, the result in the test with Cortical neurone [1], with Cortical neurone [6] and with Cortical neurone [8] was inactive. Besides, the result in the test on Cortical neurone [2], with Cortical neurone [3], in the test with Cortical neurone [4], in the test on Cortical neurone [5] and in the test on Cortical neurone [7] was Active.
